Assay results as given in US8093279B2, “Compound” (priority 2005, dated 2012).

Assays:
Aromatase = molecular target: T1, Aromatase (Homo sapiens, UniProt P11511); assay: Aromatase activity in JEG3 choriocarcinoma cells (Protocol 6); assay type: cell-based; settings: JEG3 cells
T1 construct: host or cells: JEG3 choriocarcinoma cells (intact monolayers)
T1 sequence (P11511 1-503): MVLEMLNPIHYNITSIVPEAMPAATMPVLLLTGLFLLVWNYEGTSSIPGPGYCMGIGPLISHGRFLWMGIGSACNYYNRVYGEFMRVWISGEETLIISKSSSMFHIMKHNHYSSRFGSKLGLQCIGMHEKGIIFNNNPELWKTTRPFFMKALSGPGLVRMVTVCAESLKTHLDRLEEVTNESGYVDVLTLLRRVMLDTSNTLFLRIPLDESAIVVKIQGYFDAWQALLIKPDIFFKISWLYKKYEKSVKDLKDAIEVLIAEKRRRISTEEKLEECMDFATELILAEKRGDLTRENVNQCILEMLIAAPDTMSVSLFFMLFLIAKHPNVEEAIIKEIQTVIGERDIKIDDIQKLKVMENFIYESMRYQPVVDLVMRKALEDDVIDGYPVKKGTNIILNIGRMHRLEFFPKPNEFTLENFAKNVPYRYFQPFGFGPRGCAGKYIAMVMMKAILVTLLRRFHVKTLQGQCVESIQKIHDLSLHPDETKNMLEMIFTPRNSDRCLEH
Method: Aromatase activity is measured in JEG3 choriocarcinoma cells, obtained from the ATCC.
During the aromatase reaction, ^3H2O is liberated which can be quantified using a liquid scintillation spectrometer (Beckman-Coulter, High Wycombe, Bucks. UK). […] The number of cell nuclei per flask is determined using a Coulter Counter after treating the cell monolayers with Z aponin.
Unpaired Student's t test was used to test the statistical significance of results.
(§1) A number of compounds were tested for aromatase and steroid sulphatase inhibition in accordance with the above Protocols 1 and 6.

steroid sulphatase (STS) = molecular target: T2, steroid sulphatase (STS) (Homo sapiens, UniProt P08842); assay: Inhibition of steroid sulphatase activity in intact JEG3 cells (Protocol 1); assay type: cell-based; settings: for IC50: JEG3 cells
T2 construct: host or cells: JEG3 choriocarcinoma cells (intact monolayers)
T2 sequence (P08842 22-583): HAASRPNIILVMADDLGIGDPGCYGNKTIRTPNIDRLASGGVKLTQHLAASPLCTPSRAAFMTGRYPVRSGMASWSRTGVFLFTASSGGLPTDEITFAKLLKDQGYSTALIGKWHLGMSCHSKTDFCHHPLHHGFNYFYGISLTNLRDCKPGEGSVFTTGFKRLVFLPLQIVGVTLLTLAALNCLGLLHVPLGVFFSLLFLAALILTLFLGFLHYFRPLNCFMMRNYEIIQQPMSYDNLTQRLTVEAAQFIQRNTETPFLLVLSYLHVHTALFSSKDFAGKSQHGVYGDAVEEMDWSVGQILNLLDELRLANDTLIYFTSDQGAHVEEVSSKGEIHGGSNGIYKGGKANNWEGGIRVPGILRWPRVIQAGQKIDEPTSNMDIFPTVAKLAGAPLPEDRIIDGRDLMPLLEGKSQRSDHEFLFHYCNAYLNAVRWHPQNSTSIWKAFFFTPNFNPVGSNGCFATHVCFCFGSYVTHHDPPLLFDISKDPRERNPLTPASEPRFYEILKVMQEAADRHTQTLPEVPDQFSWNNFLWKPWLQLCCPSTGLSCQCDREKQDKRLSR
Method: Inhibition of Steroid Sulphatase Activity in JEG3 cells
Steroid sulphatase activity is measured in vitro using intact JEG3 choriocarcinoma cells. This cell line may be used to study the control of human breast cancer cell growth.
Cells are maintained in Minimal Essential Medium (MEM) (Flow Laboratories, Irvine, Scotland) containing 20 mM HEPES, 5% foetal bovine serum, 2 mM glutamine, non-essential amino acids and 0.075% sodium bicarbonate. Up to 30 replicate 25 cm^2 tissue culture flasks are seeded with approximately 1×10^5 cells/flask using the above medium. Cells are grown to 80% confluency and the medium is changed every third day.
Intact monolayers of JEG3 cells in triplicate 25 cm^2 tissue culture flasks are washed with Earle's Balanced Salt Solution (EBSS from ICN Flow, High Wycombe, U.K.) and incubated for 3-4 hours at 37° C. with 5 pmol (7×10^5 dpm) [6, 7-3H]oestrone-3-sulphate (specific activity 60 Ci/mmol from New England Nuclear, Boston, Mass., U.S.A.) in serum-free MEM (2.5 ml) together with oestrone-3-sulphamate (11 concentrations: 0; 1fM; 0.01 pM; 0.1 pM; 1 pM; 0.01 nM; 0.1 nM; 1 nM; […]). After incubation each flask is cooled and the medium (1 ml) is pipetted into separate tubes containing [14C]oestrone (7×10^3 dpm) (specific activity 97 Ci/mmol from Amersham International Radiochemical Centre, Amersham, U.K.). The mixture is shaken thoroughly for 30 seconds with toluene (5 ml). Experiments have shown that >90% [14C]oestrone and <0.1% [3H]oestrone-3-sulphate is removed from the aqueous phase by this treatment. A portion (2 ml) of the organic phase is removed, evaporated and the 3H and 14C content of the residue determined by scintillation spectrometry. The mass of oestrone-3-sulphate hydrolysed was calculated from the 3H counts obtained (corrected for the volumes of the medium and organic phase used, and for recovery of [14C]oestrone added) and the specific activity of the substrate. Each batch of experiments includes incubations of microsomes prepared from a sulphatase-positive human placenta (positive control) and flasks without cells (to assess apparent non-enzymatic hydrolysis of the substrate). The number of cell nuclei per flask is determined using a Coulter Counter after treating the cell monolayers with Zaponin. One flask in each batch is used to assess cell membrane status and viability using the Trypan Blue exclusion method (Phillips, H. J. (1973) In: Tissue culture and applications, [eds: Kruse, D. F. & Patterson, M. K.]; pp. 406-408; Academic Press, New York).
Results for steroid sulphatase activity are expressed as the mean±1 S.D. of the total product (oestrone+oestradiol) formed during the incubation period (3-4 hours) calculated for […] and, for values showing statistical significance, as a percentage reduction (inhibition) over incubations containing no oestrone-3-sulphamate. Unpaired Student's t-test was used to test the statistical significance of results.
as §1

E1-STS = molecular target: T3, E1-STS (Homo sapiens, UniProt P08842); settings: at 0.1 nM; cited from earlier work
T3 construct: host or cells: intact MCF-7 cells (endogenous enzyme)
T3 sequence (P08842 22-583): T2 sequence (P08842 22-583)

rats = settings: cited from earlier work
steroid sulphatase = molecular target: T4, steroid sulphatase (Homo sapiens, UniProt P08842); settings: cited from earlier work
T4 sequence (P08842 22-583): T2 sequence (P08842 22-583)

[1] = cited from earlier work

Row | SMILES | IC50 (Aromatase) [µM] | IC50 (steroid sulphatase (STS)) [µM] | also measured
1 | N#Cc1ccc(-c2ccc(OS(N)(=O)=O)c(Cl)c2)cc1Cn1cncn1 [Compound 33, 3′-((1H-1,2,4-triazol-1-yl)methyl)-3-chloro-4′-cyanobiphenyl-4-yl sulfamate] | < 1 | < 1 | melting point: 155 to 158 °C
2 | N#Cc1cc(Cn2cncn2)ccc1-c1ccc(OS(N)(=O)=O)c(Cl)c1 [Compound 50, 4′-((1H-1,2,4-triazol-1-yl)methyl)-3-chloro-2′-cyanobiphenyl-4-yl sulfamate] | < 1 | < 1 | 
3 | NS(=O)(=O)Oc1ccc(SCc2ccc(Cn3cncn3)cc2)cc1Cl [compound 1980] | < 1 | < 1 | 
4 | CC12CCC3c4ccc(OS(N)(=O)=O)cc4CCC3C1CCC2=O (stereo not drawn) [EMATE, oestrone-3-sulphamate] |  |  | inhibition of E1-STS activity in intact MCF-7 cells (E1-STS): more than 99%; oral uterotrophic activity in rats relative to estradiol (rats; oral, rats, versus estradiol): 100 times
5 | NS(=O)(=O)Oc1cccc(-c2cccc(Cn3cncn3)c2)c1 [compound 1848] | < 1 | < 10 | 
6 | N#Cc1ccc(-c2ccc(OS(N)(=O)=O)cc2)cc1Cn1cncn1 [Compound 31, 3′-((1H-1,2,4-triazol-1-yl)methyl)-4′-cyanobiphenyl-4-yl sulfamate] | < 1 | < 1 | melting point: 179 to 180 °C
7 | NS(=O)(=O)Oc1ccc(-c2cccc(Cn3cncn3)c2)cc1 [compound 1455] | < 1 | < 10 | 
8 | NS(=O)(=O)Oc1ccc(-c2ccc(Cn3cncn3)cc2)cc1 [compound 1976] | < 10 | < 10 | 
9 | N#Cc1cc(Cn2cncn2)ccc1-c1ccc(OS(N)(=O)=O)cc1 [Compound 48, 4′-((1H-1,2,4-triazol-1-yl)methyl)-2′-cyanobiphenyl-4-yl sulfamate] | < 1 | < 1 | 
10 | NS(=O)(=O)Oc1ccc(-c2cccc(Cn3cncn3)c2)cc1Cl [compound 1854] | < 1 | < 1 | 
11 | N#Cc1cc(Cn2cncn2)cc(-c2ccc(OS(N)(=O)=O)c(Cl)c2)c1 [Compound 40, 3′-((1H-1,2,4-triazol-1-yl)methyl)-3-chloro-5′-cyanobiphenyl-4-yl sulfamate] | < 1 | < 10 | 
12 | CC(C)(C#N)c1cc(Cn2cncn2)cc(-c2ccc(OS(N)(=O)=O)c(Cl)c2)c1 [Compound 58, 3′-((1H-1,2,4-triazol-1-yl)methyl)-3-chloro-5′-(2-cyanopropan-2-yl)biphenyl-4-yl sulfamate] | < 1 |  | JEG3-cells STS, % at single concentration (steroid sulphatase (STS); @ 10 μM): 68.2 ± 1.6% @ 10 μM; melting point: 71 to 74 °C
13 | COc1cc2c(cc1OS(N)(=O)=O)CC[C@@H]1[C@@H]2CC[C@]2(C)C(=O)CC[C@@H]12 [2-methoxyoestrone-3-O-sulphamate] |  |  | oestrogenicity (rats; rat, in vivo): devoid of oestrogenicity; potency as a steroid sulphatase inhibitor compared with EMATE (steroid sulphatase): equipotent with EMATE
14 | NS(=O)(=O)Oc1ccc(SCc2cccc(Cn3cncn3)c2)cc1Cl [compound 1979] | < 1 | < 1 | 
15 | NS(=O)(=O)Oc1ccc(C#Cc2cccc(Cn3cncn3)c2)cc1Cl [compound 2054] |  | < 1 | 
16 | N#Cc1ccc(Cn2cncn2)cc1-c1ccc(OS(N)(=O)=O)cc1 [Compound 20, 5′-((1H-1,2,4-triazol-1-yl)methyl)-2′-cyanobiphenyl-4-yl sulfamate] | < 1 | < 1 | 
17 | C[C@]12CC[C@@H]3c4ccc(OS(=O)(=O)O)cc4CC[C@H]3[C@@H]1CCC2=O [E1S, oestrone sulphate] |  |  | half-life in blood [1]: 10 to 12 h
18 | N#Cc1ccc(Cn2cncn2)cc1-c1ccc(OS(N)(=O)=O)c(Cl)c1 [Compound 23, 5′-((1H-1,2,4-triazol-1-yl)methyl)-3-chloro-2′-cyanobiphenyl-4-yl sulfamate] |  | < 1 | 
